Experimental data taken from patent US7655225B2, “Methods of expanding stem and progenitor cells and expanded cell populations obtained thereby” (Gamida Cell, Ltd., priority 2002, dated 2010).

Legend:
Type in all cases: cell-based, human
mononuclear cells (MNC) = experiment: Ex vivo expansion of stem and progenitor cells in mixed cells culture: cell enumeration and FACS; details: for cumulative number of CD34+ cells: TEPA first three weeks only, FIGS. 16a-b; for cumulative number of CD34+ cells per culture bag: control 2.56×10^6; for Portion of CD34+ cells (%): control 0.2; for Number of CD34+ cells (×10^4): control 256.0
Method: Sample collection and processing: Samples were obtained from umbilical cord blood after a normal full-term delivery and were frozen within 24 hours pospartum. The blood cells were thawed in Dextran buffer and incubated for […] in MEM (Biological Industries, Israel) supplemented with 10% fetal calf serum (FCS; Biological Industries). The cells were then layered on Ficoll-Hypaque (density 1.077 gram/ml; Sigma) and centrifuged at 400 g for 30 minutes at room temperature. The mononuclear cells in the interface layer were then collected, washed three times in phosphate-buffered saline (PBS; Biological Industries), and re-suspended in PBS containing 0.5% human serum albumin (HSA). The cells were then split into two fractions, the first being the mononuclear cells (MNC) and the second fraction was used for purifying CD34^+ cells by immunomagnetic separation using the “MiniMACS CD34^+ progenitor cell isolation kit” (Miltenyi Biotec, Auburn, Calif.) according to the manufacturer's recommendations. The purity of the CD34^+ cells obtained ranged between 95% and 98%, based on Flow Cytometry evaluation (see below). Ex vivo expansion of progenitor cells: The non-purified mononuclear cells (MNC), obtained as described hereinabove, were seeded in Culture Bags (American Fluoroseal Corp.), with alpha minimal essential medium supplemented with 10% fetal bovine serum (FBS, Biological Industries), at a concentration of about 10^6 cells/ml. The purified CD34^+ cells were similarly seeded in the Culture Bags, at a concentration of […]. The media were supplemented with TEPA chelator and/or with the following human recombinant cytokines (all obtained from Perpo Tech, Inc., Rocky Hill, N.J.): Thrombopoietin (TPO), 50 ng/ml; interleukin 6 (IL-6), 50 ng/ml; FLT-3 ligand, 50 ng/ml and a stem cell factor (SCF), 50 ng/ml; occasionally SCF was replaced by IL-3, 20 ng/ml. For non-hemopoietic differentiation, FGF, EGF, NGF, VEGF, LIF or Hepatocyte growth factor, were used alone or in various combinations. All cultures were incubated at 37° C. in an atmosphere of 5% CO2 in air with extra humidity. At weekly intervals, the cell cultures were semi-depopulated and supplemented with fresh medium containing cytokines. Following different incubation periods, cells were harvested, stained with trypan blue and enumerated. Determining the density of stem and progenitor subset populations following expansion was carried out as described in the experimental procedures section of Example 3 above. Non-purified mononuclear cells (MNC) were seeded in culture bags and were provided with nutrients and cytokines as described above. The MNC cultures were either treated or untreated (untreated controls) with TEPA-chelator. The treated MNC cultures were supplemented with TEPA for only the first three weeks and from week three onward were topped with chelator-free media. The pre-purified CD34^+ cultures were not supplemented with TEPA and served as positive controls. The cultures were analyzed weekly during a 12-week period. Non-purified (mixed cells) mononuclear cells (MNC) were seeded in culture bags and were provided with nutrients and cytokines as described in Example 4 above. The mixed cell cultures were either untreated (control) or treated with Cu-TEPA chelate. The treated MNC cultures were supplemented with Cu-TEPA chelate for only the first three weeks and from week three onward were topped with chelator-free media. All cultures were analyzed […].

CD34+ cells [1] = experiment: Cellular copper content by atomic absorption; details: 2 days incubation, relative to untreated control
Method: Cell cultures: Cultures of enriched CD34^+ cell fraction were generated, maintained and analyzed as described in Example 1 above.
Copper Determination: Cells were harvested by centrifugation at 1000 g for 5 minutes. The cell pellet was washed three times in PBS. Aliquots containing 2×10^6 cells were then transferred into a metal-free Eppendorf tube and pelleted by centrifugation at 1000 g. The cell pellet was re-suspended in 0.03 M ultra-pure nitric acid to give a concentration of 1×10^7 cells/ml. The cells were sonicated and then analyzed in duplicate by a Perkin Elmer graphite furnace atomic absorption spectrophotometer at a wavelength of 324.7 nm and a 0.7 slit width. The following times and temperatures were used: drying at 95° C. for 45 seconds with a 15-s ramp; charring at […] for 30 seconds with a 10-s ramp, and atomization at […] for 10 seconds. The peak area was integrated for 10 seconds. The samples were analyzed against copper standard solution prepared from a commercial stock solution that was diluted with 0.03 M ultra pure nitric acid.
Effect of TEPA-Cu chelate and TEPA chelator on the cellular copper content: Purified CD34^+ cell were seeded in liquid culture in the presence of early cytokines and treated either with TEPA-Cu chelate or with TEPA chelator. After 2 days incubation, cells were separated from culture media and analyzed for cellular copper content. The results are presented in Table 1 below and indicate that cultured cells treated with TEPA-Cu chelate, at different concentrations, developed progressively higher cellular copper content. In contrast, cultured cells treated with TEPA chelator, at different concentrations, developed progressively lower cellular copper contents.

CD34+ cells [2] = experiment: Self-renewal potential: colony-forming cells (CFU) from CD34+ cultures; details: for number of colony-forming cells of CD34+ vs untreated control: 5 and 7 weeks incubation, different concentrations, TPO, FLT-3, IL-6, IL-3, FIGS. 15a-c; for CFUc: eight-week cultures, FIG. 2d, control 0; for numbers of CD34+ Lin− colony-forming cells, fold higher than untreated control: four weeks, with IL-3, FIG. 6d
Description: Ex vivo expansion of progenitor cells: Enriched CD34^+ cell fractions were cultures in 24-well Costar Cell Culture Clusters (Corning Inc., Corning, N.Y.) or in Culture Bags (American Fluoroseal Corp.) with alpha minimal essential medium supplemented with 10% fetal bovine serum (FBS, Biological Industries), at about 1-3×10^4 cells/ml medium. The media were further supplemented with the following human recombinant cytokines (all obtained from Perpo Tech, Inc., Rocky Hill, N.J.): Thrombopoietin (TPO), 50 ng/ml; interleukin 6 (IL-6), 50 ng/ml; FLT-3 ligand, 50 ng/ml; and IL-3, 20 ng/ml. The cultures were incubated at 37° C. in an atmosphere of 5% CO2 in air with extra humidity. At weekly intervals cell cultures were semi-depopulated and supplemented with fresh medium containing the cytokines. Following different incubation periods, the cells were harvested, stained with trypan blue and enumerated. The total cell counts, numbers of CD34^+ cells and subsets thereof, and the number of colony-forming cells (CFU) are presented herein as cumulative numbers, with the assumption that the cultures had not been passaged, namely, the numbers of cells per ml were multiplied by the number of passages performed. Self-renewal potential evaluations: The self-renewal potential of stem cells was determined in vitro by long-term colony formation. Cells were washed and seeded in a semi-solid methylcellulose medium supplemented with 2 IU/ml erythropoietin ([…] Int., Switzerland), stem cell factor and IL-3, both at 20 ng/ml (Perpo Tech), and G-CSF and GM-CSF, both at 10 ng/ml (Perpo Tech). The resulting colonies were scored after two weeks of incubation at 37° C. in a humidified atmosphere of 5% CO2 in air. Colonies were classified as blast, mixed, erythroid, myeloid, and megakaryocytic, according to their cellular composition.

[3] = 50 μM, MNC culture, eight weeks after seeding
[4] = 100 μM, MNC culture, eight weeks after seeding

SMILES: NCCNCCNCCNCCN [TEPA chelator, tetraethylenepentamine]
- cumulative number of CD34+CD38− cells (mononuclear cells (MNC); MNC culture, after 2 weeks, FIG. 17): non-detectable
- cumulative number of CD34+ cells (mononuclear cells (MNC); MNC culture, after 2 weeks): non-detectable
- cumulative number of CD34+CD38− cells (mononuclear cells (MNC); MNC culture, after 12 weeks, FIG. 17): 2.5×10^7 cells/ml
- cumulative number of CD34+ cells (mononuclear cells (MNC); MNC culture, after 12 weeks): over 8×10^7 cells/ml
- stem and progenitor cells densities vs pre-purified CD34+ cells cultures (not treated with TEPA) (mononuclear cells (MNC); TEPA-treated MNC cultures, 12-week period): either equalized or surpassed
- Relative cellular-copper content (%) (CD34+ cells [1]; 5 μM): 80%
- Relative cellular-copper content (%) (CD34+ cells [1]; 10 μM): 55%
- Relative cellular-copper content (%) (CD34+ cells [1]; 20 μM): 42%
- number of colony-forming cells of CD34+ vs untreated control (CD34+ cells [2]): substantially increased

SMILES: NCCNCCNCCNCCN.[Cl-].[Cl-].[Cu+2] [TEPA-Cu chelate, tetraethylenepentamine-copper chelate]
- cumulative number of CD34+ cells per culture bag (mononuclear cells (MNC); 50 μM, MNC culture, 8 weeks): 12.37×10^6
- Portion of CD34+ cells (%) (mononuclear cells (MNC); [3]): 1.4%
- Number of CD34+ cells (×10^4) (mononuclear cells (MNC); [3]): 1237.3 ×10^4
- cumulative number of CD34+CD38− cells (mononuclear cells (MNC); 100 μM, MNC culture, 8 weeks, control 2.1×10^5): 6.1×10^5
- cumulative number of CD34+ cells per culture bag (mononuclear cells (MNC); 100 μM, MNC culture, 8 weeks): 32.85×10^6
- Portion of CD34+ cells (%) (mononuclear cells (MNC); [4]): 1.2%
- Nunber of CD34/38− cells (×10^4) (mononuclear cells (MNC); 100 μM, MNC culture, eight weeks after seeding, control 21): 61 ×10^4
- Number of CD34+ cells (×10^4) (mononuclear cells (MNC); [4]): 3285.3 ×10^4
- Relative cellular-copper content (%) (CD34+ cells [1]; 10 μM): 178%
- Relative cellular-copper content (%) (CD34+ cells [1]; 30 μM): 235%
- Relative cellular-copper content (%) (CD34+ cells [1]; 60 μM): 290%
- CFUc (CD34+ cells [2]; 5 μM): 0 CFUc
- CFUc (CD34+ cells [2]; 10 μM): 1 CFUc
- CFUc (CD34+ cells [2]; 15 μM): 30 CFUc
- CFUc (CD34+ cells [2]; 20 μM): 120 CFUc
- numbers of CD34+ Lin− colony-forming cells, fold higher than untreated control (CD34+ cells [2]; 20 μM): 7 fold
- CFUc (CD34+ cells [2]; 40 μM): 400 CFUc
- numbers of CD34+ Lin− colony-forming cells, fold higher than untreated control (CD34+ cells [2]; 40 μM): 9 fold
- numbers of CD34+ Lin− colony-forming cells, fold higher than untreated control (CD34+ cells [2]; 50 μM): 7.5 fold
- effectiveness of higher vs lower concentrations on colony-forming cells (CD34+ cells [2]; 100 μM vs 10 and 50 μM, 8 week-old cultures, FIG. 1): substantially more effective
- number of colony-forming cells of CD34+ vs untreated control (CD34+ cells [2]): substantially increased
- colony-forming cells of CD34+ vs cultures treated only with cytokines (CD34+ cells [2]; 8 week-old cultures, FIG. 1): substantially more colony-forming cells
- numbers of CFUc vs non-treated control (cytokines only) (CD34+ cells [2]; longer incubation (5, 6, 8 weeks), chelate supplemented first three weeks, FIGS. 2b-d): substantially higher
